Test results published in US20090209536A1, “AMINOQUINAZOLINE CANNABINOID RECEPTOR MODULATORS FOR TREATMENT OF DISEASE” (KALYPSYS, INC., priority 2007, published 2009).
Like-named read-outs stand apart in the source and are kept apart here.

Tests used:
[1] = molecular target: T1, human cannabinoid receptor type 2 (Homo sapiens, UniProt P34972); test: Human CB2 Radioligand Binding Assay; details: membranes from stably transfected CHO CB2 cells
T1 construct: expressed in transfected cells; membrane preparation
T1 sequence (P34972 whole entry): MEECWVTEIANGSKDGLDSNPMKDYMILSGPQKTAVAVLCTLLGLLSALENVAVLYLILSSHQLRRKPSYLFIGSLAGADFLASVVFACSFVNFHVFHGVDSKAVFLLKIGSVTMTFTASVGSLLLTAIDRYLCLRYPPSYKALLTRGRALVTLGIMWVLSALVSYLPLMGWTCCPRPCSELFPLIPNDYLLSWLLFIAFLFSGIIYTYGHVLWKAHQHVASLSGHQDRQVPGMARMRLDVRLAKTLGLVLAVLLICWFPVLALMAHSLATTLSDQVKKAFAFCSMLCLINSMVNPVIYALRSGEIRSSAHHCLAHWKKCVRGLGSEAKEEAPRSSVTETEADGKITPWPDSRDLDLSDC
How it was run: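 Test compounds (10 uM final, or dose-response) competed with [3H]CP-55,940, used at the Kd determined per membrane lot, for binding to stable human CB2-CHO membranes over 90 min at 30° C in pH 7.4 Tris/EGTA/MgCl2/BSA buffer. GF/C filtration then scintillation counting; 100 nM CP-55,940 defined 100% efficacy.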

[2] = molecular target: T2, human cannabinoid receptor type 1 (Homo sapiens, UniProt P21554); test: Human CB1 Radioligand Binding Assay (basis of selectivity, CB2 vs. CB1); details: CB1: HEK 293 EBNA cells expressing human CB1; CB2: CHO CB2 membranes
T2 construct: purchased Perkin Elmer RBHCB1M; host or cells: HEK 293 EBNA cells
T2 sequence (P21554 whole entry): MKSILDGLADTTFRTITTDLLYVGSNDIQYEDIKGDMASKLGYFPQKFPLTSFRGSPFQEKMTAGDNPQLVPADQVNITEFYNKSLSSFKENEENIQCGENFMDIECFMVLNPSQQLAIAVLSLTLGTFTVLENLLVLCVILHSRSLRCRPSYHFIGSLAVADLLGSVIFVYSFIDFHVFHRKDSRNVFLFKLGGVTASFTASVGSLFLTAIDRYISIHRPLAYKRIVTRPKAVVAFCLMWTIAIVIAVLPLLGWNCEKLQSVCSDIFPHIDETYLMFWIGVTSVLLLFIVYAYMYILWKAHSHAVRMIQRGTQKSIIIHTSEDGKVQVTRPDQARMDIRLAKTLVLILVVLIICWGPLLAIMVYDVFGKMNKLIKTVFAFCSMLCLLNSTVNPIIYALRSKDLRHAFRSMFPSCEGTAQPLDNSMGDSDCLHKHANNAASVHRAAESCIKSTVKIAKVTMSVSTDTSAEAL
Procedure: 2. Human CB1 Radioligand Binding Assay
The incubation buffer was composed of 50 mM Tris-HCl pH 7.4, 2.5 mM EDTA, 5 mM MgCl2, 5.0 mg/ml fatty acid free BSA and the wash buffer was composed of 50 mM Tris-HCl pH 7.4, 2.5 mM EDTA, 5 mM MgCl2, 0.5 mg/ml fatty acid free BSA.

[3] = competition with [3H] CP-55,940, read-out: CB2 Ligand Binding Asssay EC50
[4] = CB2 Ligand Binding Asssay EC50, competition with [3H] CP-55,940

SMILES | EC50 [1, 3] | Selectivity, CB2 vs. CB1 [2] | EC50 [1, 4]
O=C1CN(c2nc(-c3ccccc3Cl)nc3ccccc23)CCN1 [Example 72, 4-(2-(2-Chlorophenyl)quinazolin-4-yl)piperazin-2-one] | > 1 µM | − (− indicates ≦ 10−fold) | 
CCN1CCN(c2nc(-c3ccccc3Cl)nc3ccccc23)C(=O)C1 [Example 73, 1-(2-(2-Chlorophenyl)quinazolin-4-yl)-4-ethylpiperazin-2-one] | > 1 µM | − (− indicates ≦ 10−fold) | 
CN1CCN(c2nc(-c3ccccc3Cl)nc3ccccc23)C(=O)C1 [Example 74, 1-(2-(2-Chlorophenyl)quinazolin-4-yl)-4-methylpiperazin-2-one] | > 1 µM | − (− indicates ≦ 10−fold) | 
CC(C)(C)OC(=O)N1CCN(c2nc(-c3ccccc3Cl)nc3ccccc23)C(=O)C1 [Example 75, tert-Butyl 4-(2-(2-Chlorophenyl)quinazolin-4-yl)-3-oxopiperazine-1-carboxylate] |  | − (− indicates ≦ 10−fold) | > 1 µM
CN1CCN(c2nc(-c3ccccc3Cl)nc3ccccc23)CC1=O [Example 76, 4-(2-(2-Chlorophenyl)quinazolin-4-yl)-1-methylpiperazin-2-one] | > 1 µM | − (− indicates ≦ 10−fold) | 
C[C@@H]1CN(c2nc(-c3ccccc3Cl)nc3ccccc23)C[C@H](C)N1 [Example 77, 2-(2-Chlorophenyl)-4-((3S,5R)-3,5-dimethylpiperazin-1-yl)quinazoline] | > 1 µM | − (− indicates ≦ 10−fold) | 
CN(c1ccc(C(C)(C)C)cc1)c1nc(-c2ccccc2Cl)nc2ccccc12 [Example 81, (4-tert-Butylphenyl)-[2-(2-chlorophenyl)quinazolin-4-yl]methylamine] | > 1 µM | − (− indicates ≦ 10−fold) | 
Clc1ccccc1-c1nc(N2CCNCC2)c2ccccc2n1 [Example 82, 2-(2-Chlorophenyl)-4-piperazin-1-ylquinazoline] | > 1 µM | − (− indicates ≦ 10−fold) | 
CC(C)S(=O)(=O)N1CCN(c2nc(-c3ccccc3Cl)nc3ccccc23)CC1 [Example 83, 2-(2-Chlorophenyl)-4-[4-(propane-2-sulfonyl)piperazin-1-yl]quinazoline] |  | − (− indicates ≦ 10−fold) | > 1 µM

Further lines, with some results ahead:

EC50 [1, 3] | Selectivity, CB2 vs. CB1 [2] | SMILES | EC50 [1, 4]
> 1 µM | − (− indicates ≦ 10−fold) | CC(C)(C)c1ccc(Nc2nc(-c3ccccc3Cl)nc3ccccc23)cc1 [Example 69, (4-tert-Butylphenyl)-[2-(2-chlorophenyl)quinazolin-4-yl]amine] | 
> 1 µM | − (− indicates ≦ 10−fold) | O=C1CCCN1c1nc(-c2ccccc2Cl)nc2ccccc12 [Example 70, 1-(2-(2-Chlorophenyl)quinazolin-4-yl)pyrrolidin-2-one] | 
> 1 µM | − (− indicates ≦ 10−fold) | O=C1CNCCN1c1nc(-c2ccccc2Cl)nc2ccccc12 [Example 71, 1-(2-(2-Chlorophenyl)quinazolin-4-yl)piperazin-2-one] | 
< 1 µM | − (− indicates ≦ 10−fold) | C[C@@H]1CN(c2nc(-c3ccccc3Cl)nc3ccccc23)C[C@H](C)N1C [Example 78, 2-(2-Chlorophenyl)-4-((3S,5R)-3,4,5-trimethylpiperazin-1-yl)quinazoline] | 
< 1 µM | − (− indicates ≦ 10−fold) | CCCN1[C@H](C)CN(c2nc(-c3ccccc3Cl)nc3ccccc23)C[C@@H]1C [Example 79, 2-(2-Chlorophenyl)-4-((3S,5R)-3,5-dimethyl-4-propylpiperazin-1-yl)quinazoline] | 
< 1 µM | − (− indicates ≦ 10−fold) | CCN1[C@H](C)CN(c2nc(-c3ccccc3Cl)nc3ccccc23)C[C@@H]1C [Example 80, 2-(2-Chlorophenyl)-4-((3S,5R)-4-ethyl-3,5-dimethylpiperazin-1-yl)quinazoline] | 
